# “And” between values parts separate entries of the source, which are not always exact repeats. Identical values can stand only once.
# Key:
# [1] = system: MPTP-induced male mice; experiment: Olfactory discrimination test, MPTP-induced PD model mice; assay type: in vivo, mouse
# Method: MPTP (Sigma-Aldrich) was intraperitoneally (i.p.) injected (30 mg/kg) for 5 days (Day 1-5). […] To test dyskinetic involuntary behavior, an L-DOPA injected group was included, which received 50 mg/kg of L-DOPA and 15 mg/kg of benserazide (Sigma-Aldrich) (i.p.) for 16 days (Day 1–16). All compounds were administered 6 h post-MPTP injection to avoid any effect of compounds on the MPTP metabolism in the brain. Motor and non-motor related behavior tests were performed on the following days as described in Fig. 4a in an assessor- and observer-blinded fashion. Pre-training and baseline setup for motor-related behaviors were performed 3 days prior to the injections. Mice were sacrificed and subjected to immunohistochemistry. Mice were housed at the Animal Care Facilities of McLean Hospital under a 12-h light/12-h dark cycle, ambient temperature and humidity. Animals were handled in accordance with McLean Hospital’s Institutional Animal Care and Use Committee (Protocol #: 2015N000002) and followed National Institutes of Health guidelines.
# The olfactory discrimination test was designed based on Prediger et al.. Briefly, mice were placed in a chamber (40 (w) × 20 (d) × 20 (h) cm) segmented with two identical compartments containing fresh sawdust (non-familiar odor) on one side and unchanged sawdust (familiar odor; maintained for 3 days before the test) on the other side. Mice could choose between one or another area by freely passing through an open door, for 5 min. Mice movements were monitored with EthoVision XT version 7.0 (Noldus) and time (s) and distance (cm) traveled in each compartment were recorded and analyzed.
# [2] = system: N27-A cells; experiment: Cell viability, MTT reduction, MPP+-treated N27-A cells; assay type: cell-based, rat; settings: Fig. 2a, CQ 100 µM, 4A7C-301 1 µM
# [3] = system: HeLa cells; experiment: Autophagolysosome (APL) formation assay, mRFP-GFP-LC3, HeLa cells; assay type: cell-based; settings: CQ 20 µM, 4A7C-301 1 µM
# Method: Nurr1 transactivity was normalized to β-galactosidase activity.
# HeLa and N27-A cells were transfected with tandem mRFP-GFP-LC3 (Addgene) plasmid using Lipofectamine 2000 (Invitrogen) in 24-well plates. After 24 h, cells were incubated in starvation medium (Earle’s Balanced Salt Solution, EBSS; Lonza) containing bafilomycin A1 (BafA1, 10 nM), CQ (20 µM), or 4A7C-301 (1 µM) for 6 h and then fixed with 4% formaldehyde for fluorescence detection. Images were taken using a KEYENCE microscope and red (mRFP) LC3 dots and yellow (mRFP+GFP) LC3 dots were counted from three independent wells for each treatment group. 10 cells were randomly selected and counted from each well and a total of 30 cells were analyzed for each treatment group in both HeLa and N27-A cells.
# [4] = system: mouse ventral mesencephalic (VM) primary cells; experiment: Dopaminergic gene expression, qRT-PCR, primary VM cells with 6-OHDA; assay type: cell-based
# Method: Total RNA was extracted using the GeneJET RNA Purification Kit (Thermo Fisher Scientific) and 100 ng of RNA was subjected to cDNA synthesis using Invitrogen Superscript cDNA Synthesis Kit (Invitrogen) according to the manufacturer’s protocol. qRT-PCR was performed using a CFX Connect Real-Time System (Bio-Rad) in a 20 μl volume mixture containing 2X SsoAdvanced Universal SYBR Green Supermix (Bio-Rad), 100 ng/μl of forward and reverse primers, and 1 μl of cDNA sample. Gene expression levels were quantified by the 2^∆∆CT method (Ct of target gene—Ct of glyceraldehyde-3-phosphate dehydrogenase (GAPDH). The following primers were used for qRT-PCR: TH forward: 5′-[…]-3′, reverse: 5′-[…]-3′; DAT forward: 5′-[…]-3′, reverse: 5′-[…]-3′; AADC forward: 5′-[…]-3′, reverse: 5′-[…]-3′; VMAT2 forward: 5′-[…]-3′, reverse: 5′-[…]-3′; c-Ret forward: 5′-[…]-3′, reverse: 5′-[…]-3′; TNFα forward: 5′-[…]-3′; reverse: 5′-[…]-3′; GAPDH, forward 5′-[…]-3′, reverse 5′-[…]-3′.
# Briefly, dissected VM brain tissues were collected in ice-cold Dulbecco’s phosphate-buffered saline (DPBS) and then mechanically dissociated using pipettes. Thereafter, dissociated tissues were incubated in 0.05 % Trypsin-EDTA (Invitrogen) for 5 min at 37 °C. The cell suspension was plated onto glass coverslips in 48-well plates pre-coated with […] poly-L-ornithine, 5 μg/ml Fibronectin or 1 μg/ml Laminin at a density of 2.0 × 10^5 cells/cm^2 in differentiation medium (1% heat-inactivated FBS, 2 mM L-glutamine, 50X B27 supplement, 100 μM ascorbic acid and 2 μg/ml bFGF in Neurobasal media).
# [5] = system: HeLa cells; experiment: Autophagic flux, Western blot LC3B and p62, HeLa cells; assay type: cell-based; settings: for autophagic flux (in words): HeLa; for Relative LC3B-II experession (normalized to β-actin): Supplementary Figure S7f; for Relative p62 experession (normalized to β-actin): Supplementary Figure S7g; for Relative LC3B-II expression (normalized to β-actin): Supplementary Figure S7i; for Relative p62 expression (normalized to β-actin): Supplementary Figure S7j
# Method: Experiments were confirmed by duplicate measurements of the same sample. Quantification of immunoreactive bands was performed using ImageJ software (NIH, Bethesda, MD, USA) and expressed as a relative ratio against β-actin.
# The band intensities were quantified using ImageJ and normalized against β-actin.
# [6] = system: AAV-αSyn-induced male mice; experiment: Pole test, AAV-αSyn-induced PD model mice; assay type: in vivo, mouse; settings: αSynWT and αSynA53T mice; CQ 40, 4A7C-301 5 mg/kg/day i.p.
# Text: Adeno-associated viruses (AAVs) expressing GFP only or αSyn (wild-type or A53T) were kindly provided by Dr. Yoon Seong Kim from the University of Central Florida. Recombinant AAV vectors were produced using modified pAAV-IRES-hrGFP (Agilent) to express wild-type and mutant human αSyn under control of the CMV promoter. Viral particles (AAV2) were produced at the University of Iowa Viral Vector Core according to standard operating procedures (https://medicine.uiowa.edu/vectorcore/). […] AAV vectors were delivered into the substantia nigra unilaterally by stereotaxic surgery.
# Mice were trained to descend a vertical metal rod wrapped with rough tape (80 cm high, 12 mm diameter) once per day for 2 days, and then the baseline was measured before the pole test (3 days before the MPTP injection or the first pole test at week 2). Mice were placed head-upward on the pole and total descent time was recorded.
structure (smiles),measurement,setting,value
"CCN1CCN(c2cc(N3CCN(CC)CC3)nc(NCCNc3ccnc4cc(Cl)ccc34)n2)CC1 [4A7C-301, N^1-(4,6-bis(4-ethylpiperazin-1-yl)pyrimidin-2-yl)-N^2-(7-chloroquinolin-4-yl)ethane-1,2-diamine]","olfaction, olfactory discrimination test (in words)","[1]; CQ 40, 4A7C-301 5, L-DOPA 50 mg/kg/day, i.p.",significantly restored
same,Velocity,"[1]; Figure 4e, MPTP-induced mice, individual animal values",4.45 cm/s and 5.11 cm/s and 5.02 cm/s and 4.95 cm/s and 5.52 cm/s and 4.32 cm/s and 6.05 cm/s and 4.65 cm/s and 4.59 cm/s
same,"Duration to stay (sec), New bedding","[1]; Figure 4e, New bedding, MPTP-induced mice, individual animal values",163.9 s and 142.98 s and 108.88 s and 102.84 s and 124.52 s and 121.25 s and 140.21 s and 123.92 s and 115.28 s
same,"Duration to stay (sec), Old bedding","[1]; Figure 4e, Old bedding, MPTP-induced mice, individual animal values",181.18 s and 132.3 s and 153.69 s and 187.59 s and 195.2 s and 172.27 s and 176.41 s and 155.62 s and 172.61 s
same,MTT reduction (%),[2]; Control,65.2632% and 62.1053% and 64.2105% and 61.0526%
same,MTT reduction (%),[2]; Nurr1 KD,30.9278% and 29.8969% and 34.0206%
same,MTT reduction (%),[2]; Nurr1 OE,86.5979% and 95.8763% and 87.6289% and 83.5052%
same,percentage of red dots among total LC3 dots,[3]; EBSS 6 h,63.9%
same,APL formation / autophagy (in words),"[3]; EBSS, BafA1 10 nM",did not inhibit
same,"Relative mRNA levels (fold of Control), AADC","[4]; Fig. S5f/S5g, with 6-OHDA",1.28 fold of Control and 1.13 fold of Control and 1.203 fold of Control
same,"Relative mRNA levels (fold of Control), DAT","[4]; Fig. S5f/S5g, with 6-OHDA",1.197 fold of Control and 1.193 fold of Control and 1.282 fold of Control
same,"Relative mRNA levels (fold of Control), TH","[4]; Fig. S5f/S5g, with 6-OHDA",0.9704 fold of Control and 1 fold of Control and 1.046 fold of Control
same,"Relative mRNA levels (fold of Control), VMAT2","[4]; Fig. S5f/S5g, with 6-OHDA",0.9594 fold of Control and 0.8951 fold of Control and 0.9343 fold of Control
same,"Relative mRNA levels (fold of Control), c-Ret","[4]; Fig. S5f/S5g, with 6-OHDA",0.9509 fold of Control and 0.8338 fold of Control and 0.9285 fold of Control
same,"Relative mRNA levels (fold of Control), AADC","[4]; Fig. S5f/S5g, without 6-OHDA",1.446 fold of Control and 1.683 fold of Control and 1.592 fold of Control
same,"Relative mRNA levels (fold of Control), DAT","[4]; Fig. S5f/S5g, without 6-OHDA",2.907 fold of Control and 2.949 fold of Control and 3.159 fold of Control
same,"Relative mRNA levels (fold of Control), TH","[4]; Fig. S5f/S5g, without 6-OHDA",2.273 fold of Control and 2.094 fold of Control and 2.264 fold of Control
same,"Relative mRNA levels (fold of Control), VMAT2","[4]; Fig. S5f/S5g, without 6-OHDA",1.573 fold of Control and 1.37 fold of Control and 1.5834 fold of Control
same,"Relative mRNA levels (fold of Control), c-Ret","[4]; Fig. S5f/S5g, without 6-OHDA",1.652 fold of Control and 1.7584 fold of Control and 1.7573 fold of Control
same,"Relative mRNA levels (fold of Control), AADC","[4]; Fig. S5h/S5i, with 6-OHDA",0.268 fold of Control and 0.3023 fold of Control and 0.2821 fold of Control
same,"Relative mRNA levels (fold of Control), DAT","[4]; Fig. S5h/S5i, with 6-OHDA",0.1919 fold of Control and 0.1982 fold of Control and 0.2381 fold of Control
same,"Relative mRNA levels (fold of Control), TH","[4]; Fig. S5h/S5i, with 6-OHDA",0.3682 fold of Control and 0.3362 fold of Control and 0.3267 fold of Control
same,"Relative mRNA levels (fold of Control), VMAT2","[4]; Fig. S5h/S5i, with 6-OHDA",0.2168 fold of Control and 0.2497 fold of Control and 0.2445 fold of Control
same,"Relative mRNA levels (fold of Control), c-Ret","[4]; Fig. S5h/S5i, with 6-OHDA",0.2351 fold of Control and 0.2454 fold of Control and 0.2588 fold of Control
same,"Relative mRNA levels (fold of Control), AADC","[4]; Fig. S5h/S5i, without 6-OHDA",0.385 fold of Control and 0.3813 fold of Control and 0.3915 fold of Control
same,"Relative mRNA levels (fold of Control), DAT","[4]; Fig. S5h/S5i, without 6-OHDA",0.3184 fold of Control and 0.317 fold of Control and 0.3059 fold of Control
same,"Relative mRNA levels (fold of Control), TH","[4]; Fig. S5h/S5i, without 6-OHDA",0.5668 fold of Control and 0.4913 fold of Control and 0.5193 fold of Control
same,"Relative mRNA levels (fold of Control), VMAT2","[4]; Fig. S5h/S5i, without 6-OHDA",0.4847 fold of Control and 0.4471 fold of Control and 0.4495 fold of Control
same,"Relative mRNA levels (fold of Control), c-Ret","[4]; Fig. S5h/S5i, without 6-OHDA",0.4648 fold of Control and 0.44 fold of Control and 0.4811 fold of Control
same,dopaminergic gene expression (in words),"[4]; VM primary cells, decreased by 6-OHDA, CQ 20 µM, 4A7C-301 0.5 µM",significantly rescued
same,autophagic flux (in words),[5]; 10-times higher concentrations than 1 µM,did not inhibit autophagy
same,autophagic flux (in words),[5]; LC3B-II and p62,completed
same,Relative LC3B-II experession (normalized to β-actin),[5]; time 0h,0.384 and 0.423 and 0.339
same,Relative LC3B-II experession (normalized to β-actin),[5]; time 0.5h,0.455 and 0.539 and 0.396
same,Relative LC3B-II experession (normalized to β-actin),[5]; time 1h,0.533 and 0.561 and 0.521
same,Relative LC3B-II experession (normalized to β-actin),[5]; time 2h,0.526 and 0.509 and 0.466
same,Relative LC3B-II experession (normalized to β-actin),[5]; time 4h,0.415 and 0.449 and 0.331
same,Relative p62 experession (normalized to β-actin),[5]; time 0h,0.809 and 0.904 and 0.909
same,Relative p62 experession (normalized to β-actin),[5]; time 0.5h,0.889 and 0.886 and 0.829
same,Relative p62 experession (normalized to β-actin),[5]; time 1h,0.800 and 0.736 and 0.720
same,Relative p62 experession (normalized to β-actin),[5]; time 2h,0.670 and 0.672 and 0.687
same,Relative p62 experession (normalized to β-actin),[5]; time 4h,0.552 and 0.570
same,Relative LC3B-II expression (normalized to β-actin),[5]; Conc. 1 µM,0.5044 and 0.5121 and 0.5349
same,Relative LC3B-II expression (normalized to β-actin),[5]; Conc. 10 µM,0.4913 and 0.4289 and 0.4955
same,Relative p62 expression (normalized to β-actin),[5]; Conc. 1 µM,0.2532 and 0.2036 and 0.1875
same,Relative p62 expression (normalized to β-actin),[5]; Conc. 10 µM,0.2002 and 0.2111 and 0.1727
same,"motor deficits, pole test (in words)",[6],improved motor deficits
